Data taken from ChEMBL document CHEMBL1152394, “Antiproliferative bistramides from Trididemnum cyclops from Madagascar (1)” (J Nat Prod, 2009).

Key:
[1] = system: A2780; assay: Antiproliferative activity against human A2780 cells; format: functional, cell-based
[2] = system: KB; assay: Antiproliferative activity against human KB cells; format: functional, cell-based
[3] = system: P388; assay: Antiproliferative activity against mouse P388 cells; format: functional, cell-based
[4] = system: A2780; assay: Ratio of IC50 for human KB cells to IC50 for human A2780 cells; format: functional
[5] = system: A2780; assay: Ratio of IC50 for endothelial cells to IC50 for human A2780 cells
[6] = system: P388; assay: Ratio of IC50 for mouse P388 cells to IC50 for human A2780 cells; format: functional
[7] = Antiproliferative activity against endothelial cells; format: cell-based; details: Endothelial cell

Row | Compound | IC50 [1] | IC50 [2] | IC50 [3] | Ratio IC50 [4] | Ratio IC50 [5] | Ratio IC50 [6] | IC50 [7]
1 | C/C=C/C(O)C/C=C/C[C@H](C)[C@@H](O)CC(=O)NC[C@H](O)[C@H](C)C(=O)NCCC[C@H]1O[C@@]2(CCC[C@@H](CC[C@H](C)/C=C(\C)C(C)=O)O2)CC[C@@H]1C (some centres undefined) | 340 nM | 45 nM | 20 nM | 10 | 10 | 10 | 22 nM
2 | C/C=C/C(=O)C[C@H]1CC[C@H](C)[C@H](CC(=O)NC[C@H](O)[C@H](C)C(=O)NCCC[C@H]2O[C@@]3(CCC[C@H](CC[C@H](C)/C=C(\C)[C@H](C)O)O3)CC[C@@H]2C)O1 [BISTRAMIDE A] | 260 nM | 45 nM | 20 nM | 10 | 10 | 10 | 22 nM
